Like-named read-outs stand apart in the source and are kept apart here. Bridge positions count the residues as written; N and C are the ends. Square brackets hold non-standard residues; d marks the D form. Peptide text beside a SMILES is read from it. Ala(1-amidino-4-piperidyl) = N=C(N)N1CCC(C[C@H](N)C(=O)O)CC1

The target in assay [1] is T1, huPA-H99Y (Homo sapiens, UniProt P00749, H272Y).
T1 construct: To ensure that the uPAs purified from the conditioned media were completely in the two-chain form, they were treated with plasmin; hexa-His (C); made in house; host or cells: HEK293 6E suspension cells
In words: Ki for inhibition of huPA-H99Y, chromogenic substrate S-2444. Format: biochemical. The text has this:
(§1) Determination of Ki values
(§2) The initial reaction velocities were monitored at an absorbance of 405 nm. The inhibition constants (K i) were subsequently determined from the non-linear regression analyses of plots for V i/V o versus [I]0, using Equation 2, derived under assumption of competitive inhibition:
(§3) [drawing 2] (2) where V i and V 0 are the reaction velocities in the presence and absence of inhibitor, respectively; [S]0 and [I]0 are the substrate and inhibitor concentrations, respectively; K M is K M for substrate hydrolysis by each protease. In Equation 2, it is assumed that [S]free ≈ [S]0 and [I]free ≈ [I]0.

The next assay addresses T2, huPA-H99Y R35A (Homo sapiens, UniProt P00749, H272Y/R198A).
T2 construct: To ensure that the uPAs purified from the conditioned media were completely in the two-chain form, they were treated with plasmin; hexa-His (C); made in house; host or cells: HEK293 6E suspension cells
Description: Ki for inhibition of huPA-H99Y-R35A, chromogenic substrate. In kind it is biochemical. The conditions noted are these: 37°C; means ± S.D.; read-out: K i for inhibition of huPA-H99Y-R35A.
Text: as §1, §2, §3

In assay [2] the target is T3, huPA-H99Y (Homo sapiens, UniProt P00749, C299A/H272Y/N322Q).
T3 construct: recombinant uPA catalytic domain (residues 159–411), harbouring a H99Y mutation; made in house; host or cells: Pichia pastoris X-33 (secreted)
In words: Isothermal titration calorimetry for binding to huPA-H99Y catalytic domain. The conditions noted are these: ITC, 25°C, pH 7.4. As for the experimental part: For these experiments, we used the catalytic domain of huPA-H99Y expressed in and purified from Pichia pastoris strain X-33 (see above). The protein was dissolved in and dialysed against a buffer of 20 mM sodium phosphate, pH 7.4, 140 mM NaCl. The protein concentration was determined by absorbance at 280 nm, using an extinction coefficient of 43810 M^−1cm^−1. The peptides were dissolved in the above-mentioned buffer. All isothermal titration calorimetry experiments were performed with a MicroCal^TM ITC200 instrument equilibrated to a temperature of 25°C (298oK). The concentration of uPA-H99Y catalytic domain used in the 200 µl sample cell was 5–50 µM, depending on the affinity of the ligand. Titrations were performed by injecting 2 µl of the ligand until the total syringe volume of 40 µl was spent. Titration of ligand into buffer was performed to obtain buffer correction. The equilibrium association constant KA and the reaction enthalpy ΔH were calculated by fitting the integrated titration peaks using a one-binding-site model in the ITC ORIGIN7 programme package. The following formulas for Gibbs free energy ΔG were used to analyse the measured energies
[drawing 4] (4) where R is the gas constant and T the absolute temperature. ΔS, the entropic change during the reaction, was calculated using equations 3 and 4 and the measured K A and ΔH values.

The target in the next assay is huPA-H99Y Q192A (Homo sapiens, UniProt P00749, H272Y/Q373A). Description: Ki for inhibition of huPA-H99Y-Q192A, chromogenic substrate. On the set-up: To ensure that the uPAs purified from the conditioned media were completely in the two-chain form, they were treated with plasmin; hexa-His (C); made in house; host or cells: HEK293 6E suspension cells. Particulars: 37°C; means ± S.D.; read-out: K i for inhibition of huPA-H99Y-Q192A. Format: biochemical.
Text: as §1, §2, §3

A further assay addresses T4, muPA V213T (Mus musculus, UniProt P06869, V396T).
T4 construct: To ensure that the uPAs purified from the conditioned media were completely in the two-chain form, they were treated with plasmin; hexa-His (C); made in house; host or cells: HEK293 6E suspension cells
Description: Ki for inhibition of muPA-V213T, chromogenic substrate. Format: biochemical, murine. The conditions noted are these: means ± S.D.; read-out: K i for inhibition of muPA-V213T.
Text: as §1, §2, §3

Another assay has as its target T5, muPA K143A (Mus musculus, UniProt P06869, K322A).
T5 construct: To ensure that the uPAs purified from the conditioned media were completely in the two-chain form, they were treated with plasmin; hexa-His (C); made in house; host or cells: HEK293 6E suspension cells
Description: Ki for inhibition of muPA-K143A, chromogenic substrate. Format: biochemical, murine. The conditions noted are these: means ± S.D.; read-out: K i for inhibition of muPA-K143A.
Text: as §1, §2, §3

A further assay has as its target T6, huPA-H99Y K143A (Homo sapiens, UniProt P00749, H272Y/K320A).
T6 construct: To ensure that the uPAs purified from the conditioned media were completely in the two-chain form, they were treated with plasmin; hexa-His (C); made in house; host or cells: HEK293 6E suspension cells
Description: Ki for inhibition of huPA-H99Y-K143A, chromogenic substrate. The conditions noted are these: 37°C; means ± S.D.; read-out: K i for inhibition of huPA-H99Y-K143A. Format: biochemical.
Text: as §1, §2, §3

For another assay, the target named is T7, muPA Y99A (Mus musculus, UniProt P06869, Y274A).
T7 construct: To ensure that the uPAs purified from the conditioned media were completely in the two-chain form, they were treated with plasmin; hexa-His (C); made in house; host or cells: HEK293 6E suspension cells
T7 sequence (P06869 180-433 Y274A): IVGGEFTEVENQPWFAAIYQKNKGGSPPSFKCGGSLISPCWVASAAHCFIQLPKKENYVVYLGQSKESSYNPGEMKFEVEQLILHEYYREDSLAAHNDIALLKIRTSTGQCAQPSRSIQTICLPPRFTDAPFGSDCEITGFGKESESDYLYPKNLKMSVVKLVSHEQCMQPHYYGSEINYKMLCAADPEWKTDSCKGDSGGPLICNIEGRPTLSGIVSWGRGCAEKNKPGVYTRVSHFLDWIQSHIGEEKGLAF
T7 sequence (P06869 21-178 partner limits assumed): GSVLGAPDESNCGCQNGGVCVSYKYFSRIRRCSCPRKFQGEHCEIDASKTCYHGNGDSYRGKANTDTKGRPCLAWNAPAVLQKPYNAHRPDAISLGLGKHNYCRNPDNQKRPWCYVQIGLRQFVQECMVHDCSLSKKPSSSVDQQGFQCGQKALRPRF
Description: Ki for inhibition of muPA-Y99A, chromogenic substrate. In kind it is biochemical, murine. The conditions noted are these: means ± S.D.; read-out: K i for inhibition of muPA-Y99A.
Text: as §1, §2, §3

The target of a further assay is T8, muPA (Mus musculus, UniProt P06869).
T8 construct: To ensure that the uPAs purified from the conditioned media were completely in the two-chain form, they were treated with plasmin; hexa-His (C); made in house; host or cells: HEK293 6E suspension cells
T8 sequence (P06869 180-433 limits assumed): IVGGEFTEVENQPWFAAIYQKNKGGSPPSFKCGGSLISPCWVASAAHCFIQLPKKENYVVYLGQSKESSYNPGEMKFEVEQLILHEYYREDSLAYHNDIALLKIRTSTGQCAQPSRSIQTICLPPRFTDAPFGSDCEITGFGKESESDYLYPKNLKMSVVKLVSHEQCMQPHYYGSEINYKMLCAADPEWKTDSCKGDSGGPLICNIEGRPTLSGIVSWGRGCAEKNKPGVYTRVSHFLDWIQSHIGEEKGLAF
T8 sequence (P06869 21-178 partner limits assumed): as the sequence (P06869 21-178 partner limits assumed) above
Description: Surface plasmon resonance analysis of peptide binding to muPA. On the set-up: species or system murine. The conditions noted are these: SPR, 25°C, pH 7.4. As for the experimental part: (§4) Surface plasmon resonance (SPR) analysis
(§5) To determine the equilibrium binding constants (KD), the association rate constants (kon) and dissociation rate constants (koff) for peptide binding to uPA, surface plasmon resonance analysis was performed on a Biacore T200 instrument (Biacore, Uppsala, Sweden). A CM5 chip was coupled with the uPA variant (muPA or huPAH99Y) to be analysed, by injecting a concentration of 30 µg/mL uPA in immobilization buffer (10 mM sodium acetate, pH 5.0), aiming for an immobilised level of approximately 500 response units (RU). Immobilisation was followed by surface blocking with ethanolamine. A reference cell was prepared in the same way, without coupling of uPA. Mupain-1 variants in HBS with 0.1% BSA, in a dilution series, were injected at a flow rate of 30 µL per min during 60 s at 25°C. Subsequently, the dissociation was monitored during 600 s. Kinetic constants (k on and k off) were calculated with the Biacore Evaluation Software, using the 1∶1 kinetic fit. The K D values were calculated as k off /k on.

Assay [3] addresses T1, huPA-H99Y. In words: Surface plasmon resonance analysis of peptide binding to huPA-H99Y. The conditions noted are these: SPR, 25°C, pH 7.4. As for the experimental part: as §4, §5
On the technique in general: SPR reads the build-up and loss of mass on a sensor chip optically.

A further assay deals with T9, muPA S190A (Mus musculus, UniProt P06869, S373A).
T9 construct: To ensure that the uPAs purified from the conditioned media were completely in the two-chain form, they were treated with plasmin; hexa-His (C); made in house; host or cells: HEK293 6E suspension cells
T9 sequence (P06869 180-433 S373A): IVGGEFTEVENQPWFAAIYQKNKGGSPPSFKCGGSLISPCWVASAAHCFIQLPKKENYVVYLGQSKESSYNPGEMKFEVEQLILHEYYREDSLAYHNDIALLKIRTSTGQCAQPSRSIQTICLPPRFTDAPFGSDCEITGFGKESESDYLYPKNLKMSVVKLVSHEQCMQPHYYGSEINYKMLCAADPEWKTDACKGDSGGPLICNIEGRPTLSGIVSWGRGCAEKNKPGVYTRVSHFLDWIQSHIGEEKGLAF
T9 sequence (P06869 21-178 partner limits assumed): as the sequence (P06869 21-178 partner limits assumed) above
In words: Ki for inhibition of muPA-S190A, chromogenic substrate. In kind it is biochemical, murine. Particulars: means ± S.D.; read-out: K i for inhibition of muPA-S190A.
Text: as §1, §2, §3

The next assay has as its target T10, huPA-H99Y V41A (Homo sapiens, UniProt P00749, H272Y/V208A).
T10 construct: To ensure that the uPAs purified from the conditioned media were completely in the two-chain form, they were treated with plasmin; hexa-His (C); made in house; host or cells: HEK293 6E suspension cells
Description: Ki for inhibition of huPA-H99Y-V41A, chromogenic substrate. Format: biochemical. The conditions noted are these: 37°C; means ± S.D.; read-out: K i for inhibition of huPA-H99Y-V41A.
Text: as §1, §2, §3

The target of another assay is T11, muPA K41A (Mus musculus, UniProt P06869, K210A).
T11 construct: To ensure that the uPAs purified from the conditioned media were completely in the two-chain form, they were treated with plasmin; hexa-His (C); made in house; host or cells: HEK293 6E suspension cells
T11 sequence (P06869 180-433 K210A): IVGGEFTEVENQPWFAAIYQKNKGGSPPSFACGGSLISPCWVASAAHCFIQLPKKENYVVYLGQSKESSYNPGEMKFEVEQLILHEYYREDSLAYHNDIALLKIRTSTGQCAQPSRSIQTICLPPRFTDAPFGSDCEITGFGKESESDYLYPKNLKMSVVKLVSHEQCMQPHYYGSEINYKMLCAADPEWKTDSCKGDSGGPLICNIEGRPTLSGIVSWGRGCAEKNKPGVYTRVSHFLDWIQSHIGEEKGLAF
T11 sequence (P06869 21-178 partner limits assumed): as the sequence (P06869 21-178 partner limits assumed) above
Description: Ki for inhibition of muPA-K41A, chromogenic substrate. In kind it is biochemical, murine. The conditions noted are these: means ± S.D.; read-out: K i for inhibition of muPA-K41A.
Text: as §1, §2, §3

The mark [4] stands for this setting: 37°C, means ± S.D., read-out: K i for inhibition of huPA-H99Y.

T5 sequence (P06869 180-433 K322A): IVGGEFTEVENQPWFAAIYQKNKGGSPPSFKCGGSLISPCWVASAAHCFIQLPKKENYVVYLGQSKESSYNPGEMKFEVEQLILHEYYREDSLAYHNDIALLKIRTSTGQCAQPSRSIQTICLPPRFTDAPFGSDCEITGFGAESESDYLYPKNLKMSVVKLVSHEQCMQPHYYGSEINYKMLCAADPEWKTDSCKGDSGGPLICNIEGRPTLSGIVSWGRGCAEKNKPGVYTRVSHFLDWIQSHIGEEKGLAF
T5 sequence (P06869 21-178 partner limits assumed): as the sequence (P06869 21-178 partner limits assumed) above
T4 sequence (P06869 180-433 V396T): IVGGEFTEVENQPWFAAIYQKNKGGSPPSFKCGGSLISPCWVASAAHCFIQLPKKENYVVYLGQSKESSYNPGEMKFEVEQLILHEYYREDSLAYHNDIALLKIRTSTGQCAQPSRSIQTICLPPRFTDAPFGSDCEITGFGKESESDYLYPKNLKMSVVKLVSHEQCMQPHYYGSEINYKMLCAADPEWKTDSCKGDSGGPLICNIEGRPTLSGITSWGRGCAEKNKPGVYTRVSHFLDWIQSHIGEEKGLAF
T4 sequence (P06869 21-178 partner limits assumed): as the sequence (P06869 21-178 partner limits assumed) above

On to `CC(=O)N[C@H]1CSSC[C@@H](C(N)=O)NC(=O)[C@H](CC(=O)O)NC(=O)[C@H](CC(C)C)NC(=O)[C@H](Cc2ccc(O)cc2)NC(=O)[C@H](CCCNC(=N)N)NC(=O)[C@H](CO)NC(=O)[C@H](C)NC(=O)[C@H](C)NC(=O)[C@@H]2CCCN2C1=O` [Mupain-1 Y4A, CPAASRYLDC] (Ac-CPAASRYLDC-NH2; disulfide 1-10), for which the Ki at huPA-H99Y [1] (setting [4]) is > 1000 µM.
Still for that read-out and setting: for `CC(=O)N[C@H]1CSSC[C@@H](C(N)=O)NC(=O)[C@H](CC(=O)O)NC(=O)[C@H](CC(C)C)NC(=O)[C@H](C)NC(=O)[C@H](CCCNC(=N)N)NC(=O)[C@H](CO)NC(=O)[C@H](Cc2ccc(O)cc2)NC(=O)[C@H](C)NC(=O)[C@@H]2CCCN2C1=O` [Mupain-1 Y7A, CPAYSRALDC] (Ac-CPAYSRALDC-NH2; disulfide 1-10) the value was 44 ± 3 µM.
With `CC(=O)N[C@H]1CSSC[C@@H](C(N)=O)NC(=O)[C@H](CC(=O)O)NC(=O)[C@H](CC(C)C)NC(=O)[C@H](Cc2ccc(O)cc2)NC(=O)[C@H](C)NC(=O)[C@H](CO)NC(=O)[C@H](Cc2ccc(O)cc2)NC(=O)[C@H](C)NC(=O)[C@@H]2CCCN2C1=O` [Mupain-1 R6A, CPAYSAYLDC] (Ac-CPAYSAYLDC-NH2; disulfide 1-10), the Ki at huPA-H99Y [1] is > 1000 µM.
On to `CC(=O)N[C@H]1CSSC[C@@H](C(N)=O)NC(=O)[C@H](C)NC(=O)[C@H](CC(C)C)NC(=O)[C@H](Cc2ccc(O)cc2)NC(=O)[C@H](CC2CCN(C(=N)N)CC2)NC(=O)[C@H](CO)NC(=O)[C@H](Cc2ccc(O)cc2)NC(=O)[C@H](C)NC(=O)[C@@H]2CCCN2C1=O` [Mupain-1-16 D9A, CPAYS[L-3-(N-amidino-4-piperidyl)alanine]YLAC] (Ac-CPAYS[Ala(1-amidino-4-piperidyl)]YLAC-NH2; disulfide 1-10), for which the Ki on huPA-H99Y R35A is 0.174 ± 0.059 µM; on huPA-H99Y Q192A, 0.438 ± 0.072 µM; at muPA V213T, 0.014 ± 0.004 µM; at muPA K143A, 0.1 ± 0.02 µM; on huPA-H99Y [1] (setting [4]), 0.309 ± 0.013 µM; on huPA-H99Y K143A, 0.188 ± 0.057 µM. Also, the Ki on muPA Y99A was 1.36 ± 0.33 µM; on muPA S190A, 0.529 ± 0.052 µM; at huPA-H99Y V41A, 0.48 ± 0.158 µM; on muPA K41A it was 0.014 ± 0.002 µM. Besides, the Kd on huPA-H99Y [2] was 0.134 ± 0.061 µM; on huPA-H99Y [3] (calculated as k off/k on, read-out: K D, huPA-H99Y), 0.0718 ± 0.006 µM. On huPA-H99Y [2], the N is on record as 0.88±0.11 (5). Also, on huPA-H99Y [2], the TΔS was −6.2±2.7 (5) ^1 kJ/mole. In addition, the ΔG on huPA-H99Y [2] is recorded as −39.5±1.1 (5) ^1 kJ/mole. The ΔH at huPA-H99Y [2] is recorded as −46.6±2.9 (5) ^1 kJ/mole. Besides, the “k off, muPA” value on muPA is 1.22±0.06 (3) s^−1, ×10^2. Further, the “k on, muPA” value at muPA is 5.79±0.82 (3) M^−1s^−1, ×10^−5. Further, the “k off, huPA-H99Y” value at huPA-H99Y [3] is recorded as 3.33±0.13 (4) s^-1, ×10^2. In addition, on huPA-H99Y [3], the “k on, huPA-H99Y” value is 4.65±0.27 (4) M^-1s^-1, ×10^-5.

Source of the values: publication PMC4278837, “A Cyclic Peptidic Serine Protease Inhibitor: Increasing Affinity by Increasing Peptide Flexibility” (PLoS ONE, 2014).
